# From patent publication US20040138207A1, “Antitumor agents” (priority 2001, published 2004)
# Where “and” joins values, the source holds several entries; their conditions need not be identical. Identical values can stand only once. Like-named read-outs stand apart in the source and are kept apart here.
# How the values were obtained:
# [1] = system: human large bowel cancer cell COLO320DM; assay: Example 3 comparison with other gastrin/CCK-B antagonist in COLO320DM bearing mice; assay type: in vivo; details: 10 days
# Description: In human large bowel cancer cell COLO320DM bearing mice, the administration of compound A was started when the tumor volume reached to about 120 mm^3 in a similar manner to that described in the Example 2. Its dose per day was 60 or 200 mg/kg, and the administration period was 10 days. As a comparative compound, (3RS)-N-(1-(1-tert-butylcarbonylmethyl)-2,3-dihydro-2-oxo-5-(2-pyridyl)-1H-1,4-benzodiazepin-3-yl)-N′-(3-(dimethylamino)phenyl)urea whose data on inhibitory effect of pentagastrin-stimulus gastric acid secretion in a dog are disclosed as “compound of Example 38” in the aforementioned WO 93/16999 was administered in the same manner at a dose of 200 mg/kg.
# The tumor growth inhibition ratio was calculated in a similar manner to that described in Example 2. The tumor growth inhibition ratio when 60 or 200 mg/kg of the compound A was administered was 20 or 27%, respectively.
# large bowel cancer = details: large bowel cancer-bearing mice; cited from earlier work
# [2] = system: human pancreatic cancer cell line BxPC-3; assay: Example 4 comparison with gemcitabine, tumor growth in BxPC-3 bearing nude mice; assay type: in vivo
# Description: (§1) A total of 3×10^6 cells of a human pancreatic cancer cell line BxPC-3 was injected into the dorsal side skin of female Balb/c nude mice (6 weeks of age). When the tumor volume reached to about 110 mm^3, 60, 200 or 600 mg/kg per day of the compound A was orally administered in a similar manner to that described in Example 2, every day by dividing the daily dose into two doses per day (n=5). Also, 0.5% methylcellulose solution was administered in the same schedule to the control group. The administration period was 14 days.
# (§2) As a comparative compound, a known pancreatic cancer therapeutic agent Gemcitabine (GEM) was used in the same test. GEM was intravenously administered at a dose of 60, 120 or 240 mg/kg per day, once in three days. Physiological saline was administered to the control group in the same schedule.
# The tumor growth inhibition ratio was calculated by same calculation formula in Example 2.
# [3] = Example 4 side effect parameters in BxPC-3 bearing nude mice; assay type: in vivo
# Description: as §1, §2
# The tumor growth inhibition ratio in the compound A-treated group is shown in Table 3, and that in the GEM-treated group in Table 4, together with various parameters which indicate the degree of side effects.
# [4] = system: cancer cell proliferation; details: group of no gastrin stimulation; cited from earlier work
# human large bowel cancer = details: without exogenous gastrin stimulation, cited from earlier work
# [5] = system: gastrin-stimulated gastric acid secretion; details: dog, 0.01 mg/kg oral administration; cited from earlier work
# [6] = system: human pancreatic cancer cell line PANC-1; assay: Example 1 antitumor action in PANC-1 bearing Balb/c nude mice; assay type: in vivo; details: PANC-1, 200 mg/kg per day p.o., 49 days
# Description: (§3) Three to 10×10^6 cells of human pancreatic cancer cell lines (BxPC-3 and PANC-1), human large bowel cancer cell lines (HT29 and COLO320DM) and a human gastric cancer cell line (MKN28) were injected into the dorsal side skin of female Balb/c nude mice. Starting on the next day of the subcutaneous injection of cancer cells, 200 mg/kg per day of the compound A was suspended in 0.5% methylcellulose and orally administered every day by dividing the daily dose into two doses per day. Also, 0.5% methylcellulose solution was administered in the same schedule to the control group. Using calipers, the tumor diameter was measured periodically until the next day of the final administration. The tumor volume and tumor growth inhibition ratio were calculated by the following calculation formulae.
# (§4) Tumor volume (mm^3)=½×breadth (mm)^2×length (mm)
# (§5) Tumor growth inhibition ratio (%)=[(tumor volume of control group—tumor volume of compound A administration group)/tumor volume of control group]×100
# [7] = system: human large bowel cancer cell line HT29; assay: Example 1 antitumor action in HT29 bearing Balb/c nude mice; assay type: in vivo; details: HT29, 200 mg/kg per day p.o., 27 days
# Description: as §3, §4, §5
# [8] = system: human gastric cancer cell line MKN28; assay: Example 1 antitumor action in MKN28 bearing Balb/c nude mice; assay type: in vivo; details: MKN28, 200 mg/kg per day p.o., 20 days
# Description: as §3, §4, §5
# [9] = system: human pancreatic cancer cell line BxPC-3; assay: Example 1 antitumor action in BxPC-3 bearing Balb/c nude mice; assay type: in vivo; details: BxPC-3, 200 mg/kg per day p.o. from day after injection, 23 days
# Description: as §3, §4, §5
# [10] = Example 2 toxicity (body weight, side effects) in BxPC-3 cancer-bearing mice; assay type: in vivo
# Description: (§6) In human pancreatic cancer cell BxPC-3 bearing mice, administration of the compound A was started when the tumor volume reached to about 120 mm^3 in a similar manner to that described in the test example 1. Its dose per day was 200 or 600 mg/kg, and the administration period was 21 days.
# [11] = system: human large bowel cancer cell line COLO320DM; assay: Example 1 antitumor action in COLO320DM bearing Balb/c nude mice; assay type: in vivo; details: 200 mg/kg per day p.o., 21 days
# Description: as §3, §4, §5
# [12] = system: human pancreatic cancer cell BxPC-3; assay: Example 2 antitumor action in BxPC-3 cancer-bearing mice (established tumor); assay type: in vivo; details: 21 days, start at about 120 mm^3
# Description: as §6
# The tumor growth inhibition ratio was calculated by the following calculation formula.
# Tumor growth inhibition ratio (%)={[(tumor volume of control group on the administration-finished day−tumor volume of control group before commencement of the administration)−(tumor volume of compound A-treated group on the administration-finished day−tumor volume of compound A-treated group before commencement of the administration)]/(tumor volume of control group on the administration-finished day−tumor volume of control group before commencement of the administration)}×100
# [13] = daily dose of 600 mg/kg continuously for 21 days
compound,measurement,setting,value
"CN(C)c1cccc(NC(=O)NC2N=C(c3ccccn3)c3ccccc3N(CC(=O)C(C)(C)C)C2=O)c1 (racemic) [comparative compound, (3RS)-N-(1-(1-tert-butylcarbonylmethyl)-2,3-dihydro-2-oxo-5-(2-pyridyl)-1H-1,4-benzodiazepin-3-yl)-N′-(3-(dimethylamino)phenyl)urea, reference compound]",tumor growth inhibitory action,[1]; 200 mg/kg,did not show
CCCN(CCC)C(=O)C(CCC(=O)O)NC(=O)c1ccccc1 (stereo not drawn) [proglumide],antitumor effect,large bowel cancer,appropriate antitumor effect
same,mortality rate of mice,large bowel cancer,reduced
"Nc1ccn([C@@H]2O[C@H](CO)[C@@H](O)C2(F)F)c(=O)n1 [GEM, Gemcitabine, reference compound]",Tumor growth inhibition ratio,[2]; 60 mg/kg i.v. once in three days,22.2% and 22.2 ± 26.7%
same,Tumor growth inhibition ratio,[2]; 120 mg/kg i.v. once in three days,80.2% and 80.2 ± 20.1%
same,dead cases,"[3]; 240 mg/kg i.v. once in three days, n=5",3/5 dead cases
same,MTD at 14 days,"[3]; female, Balb/c nude, mouse, in vivo, iv, i.v. once in three days, BxPC-3 bearing mice, read-out: MTD (maximum tolerated dose)",120 mg/kg
Cc1cccc(NC(=O)N[C@@H]2N=C(c3ccccc3)c3ccccc3N(C)C2=O)c1 [L-365260],inhibition of cancer cell proliferation,[4],not found
C[C@](Cc1c[nH]c2ccccc12)(NC(=O)OC1[C@H]2C[C@@H]3C[C@@H](C[C@H]1C3)C2)C(=O)NC[C@H](NC(=O)CCC(=O)O)c1ccccc1 (stereo partly drawn) [CI-988],growth inhibitory action,human large bowel cancer; 25 mg/kg oral,showed a growth inhibitory action
same,growth inhibitory action,human large bowel cancer; 50 mg/kg oral,not found
"CNc1cccc(NC(=O)N[C@@H]2N=C(c3ccccn3)c3ccccc3N(CC(=O)C(C)(C)C)C2=O)c1 [compound A, (3R)-N-(1-(1-tert-butylcarbonylmethyl)-2,3-dihydro-2-oxo-5-(2-pyridyl)-1H-1,4-benzodiazepin-3-yl)-N′-(3-(methylamino)phenyl)urea]",inhibition of gastrin-stimulated gastric acid secretion,[5],50%
same,Tumor growth inhibition ratio,[6],52%
same,Tumor growth inhibition ratio,[1]; 60 mg/kg per day,20%
same,Tumor growth inhibition ratio,[1]; 200 mg/kg per day,27%
same,Tumor growth inhibition ratio,[7],36%
same,Tumor growth inhibition ratio,"[2]; 60 mg/kg p.o. per day, 14 days",19.3 ± 23.6%
same,Tumor growth inhibition ratio,"[2]; 200 mg/kg p.o. per day, 14 days",25.1%
same,Tumor growth inhibition ratio,"[2]; 200 mg/kg p.o. per day, 14 days, listed as Compound A",25.1 ± 21.1%
same,Tumor growth inhibition ratio,"[2]; 600 mg/kg p.o. per day, 14 days",78.2 ± 28.3%
same,Tumor growth inhibition ratio,[8],31%
same,Tumor growth inhibition ratio,[9],65%
same,Body weight,"[10]; 200 mg/kg dose group, on the 21st day",23.8 ± 0.5 g
same,Body weight,"[10]; 200 mg/kg dose group, the day before commencement of administration",22.1 ± 0.5 g
same,Body weight,"[10]; 600 mg/kg dose group, on the 21st day",23.3 ± 0.7 g
same,Body weight,"[10]; 600 mg/kg dose group, the day before commencement of administration",21.4 ± 0.6 g
same,influence on the mouse body weight,[10]; [13],did not exert influence
same,side effects,[10]; [13],not observed
same,Tumor growth inhibition ratio,[11],47%
same,Tumor growth inhibition ratio,[12]; 200 mg/kg per day,48%
same,Tumor growth inhibition ratio,[12]; 600 mg/kg per day,79%
